Assay results taken from patent publication US20250034088A1, “LIPIDS AND USES THEREOF” (TAIWAN BIO-MANUFACTURING CORPORATION, priority 2023, published 2025).

Key:
[1] = mRNA encapsulation efficiency by RiboGreen assay; assay type: physicochemical; conditions: FLuc mRNA-loaded LNP made with the lipid; for Encap)-sulation (%: Table 1
Procedure: (§1) The Firefly luciferase (FLuc) reporter mRNA-loaded lipid nanoparticles (LNPs) were formulated by NANOASSEMBLR® IGNITE™. Briefly, the lipid, cholesterol, 1,2-dimyristoyl-rac-glycero-3-methoxypolyethylene glycol-2000 (DMG-PEG2000), and […] (DSPC) mixture was prepared in ethanolic solution at the % mole ratio of […]. Three units of FLuc mRNA was dissolved in 25 mM sodium acetate pH 5.0 buffer and one unit of lipid mixture were rapidly combined in the microfluidic mixing cartridge at an amine-to-phosphate (N/P) ratio constant at 6, and the instrument flow rate set at 12 mL/min. The mRNA-LNPs performed a 40-fold dilution of calcium and magnesium-free phosphate-buffered saline (PBS) to reach pH neutral. Then, LNPs were concentrated using Amicon® Ultra-15 Centrifugal Filter Unit.
(§2) The mRNA-LNPs were characterized in terms of hydrodynamic size (z-average diameter), zeta potential, and polydispersity index by ZETASIZER™ PRO BLUE (MALVERN PANALYTICAL®). A QUANT-IT™ RIBOGREEN assay kit (THERMOFISHER®) was conducted to identify the mRNA concentration and encapsulation efficiency. In brief, mRNA-LNPs were diluted in equal volumes of Tris/EDTA (TE) buffer or 2% Triton X-100 in TE buffer. After that, a RIBOGREEN reagent was added to each sample and incubated at 37° C. in absence of light for 15 min. The fluorescence intensity (Ex/Em 480/520 nm) was detected on a TECAN™ Microplate reader. The encapsulation efficiency (E.E) can be calculated by the formula:
E.E(%)=(Total mRNA concentration−Unencapsulated mRNA concentration)/(Total mRNA concentration)×100%

[2] = LNP hydrodynamic size, polydispersity index and zeta potential by Zetasizer; assay type: physicochemical; conditions: FLuc mRNA-loaded LNP
Procedure: as §1
as §2, with “formula: […]” for “formula:”

[3] = system: HEPG2 cells; test: Transfection efficiency of FLuc mRNA-LNPs in HEPG2 cells (luminescence); assay type: cell-based; conditions: 18 hours
Procedure: (§3) To investigate the potential and cytotoxicity of mRNA-LNP made from novel lipids, FLuc mRNA (TRILINK®) was encapsulated into LNPs and transfected to the cell line. HEPG2 cells were maintained at 37° C. under 5% CO2 in a DMEM medium with 10% fetal bovine serum. Cells were seeded at 4×10^4 cells/well and treated with FLuc mRNA-LNPs for 18 hours while cell confluency reach 70%. To explore transfection efficiency, HEPG2 cells were treated with D-luciferin and mixed thoroughly for another incubation of 5 min at 37° C. The luminescence intensity was recorded using M200 Microplate Reader (TECAN®). Cell viability was evaluated by Cell Counting Kit-8 (SIGMA-ALDRICH®) and the absorbance was measured at 450 nm.

[4] = system: HEPG2 cells; test: Cytotoxicity in HEPG2 cells (Cell Counting Kit-8); assay type: cell-based; conditions: FLuc mRNA-LNPs, 18 hours
Procedure: as §3

Row | Structure (SMILES) | Encap)-sulation (% [1] | LNP zeta potential (mV) ([2]; Table 1) | PDI ([2]; Table 1) | LNP size (nm) ([2]; z-average diameter, Table 1) | Encapsulation (%) ([1]; Table 2) | LNP size (nm) ([2]; Table 2) | LNP zeta potential (mV) ([2]; Table 2) | PDI ([2]; Table 2) | Transfection efficiency (relative to SM-102, %) [3] | Cytotoxicity in HEPG2 [4]
1 | CCCCCCCCC(CCCCCCCC)OC(=O)CCCCO[C@H]1CN(CCCO)C[C@H]1OCCCCC(=O)OC(CCCCCCCC)CCCCCCCC [Compound 3, di(heptadecan-9-yl)5,5′-(((3S,4R)-1-(3-hydroxypropyl)pyrrolidine-3,4-diyl)bis(oxy))dipentanoate] | 97.92% | 6.98 mV | 0.016 | 98.84 nm | – | – | – | – | – | –
2 | CCCCCCCCC(CCCCCCCC)OC(=O)CCCCCO[C@H]1CN(CCCCCO)C[C@H]1OCCCCCC(=O)OC(CCCCCCCC)CCCCCCCC [Compound 12, di(heptadecan-9-yl)6,6′-(((3R,4S)-1-(5-hydroxypentyl)pyrrolidine-3,4-diyl)bis(oxy))dihexanoate] | 96.99% | 7.83 mV | 0.039 | 78.35 nm | – | – | – | – | – | –
3 | CCCCCCCCC(CCCCCC)C(=O)OCCCCCCO[C@H]1CN(CCCO)C[C@H]1OCCCCCCOC(=O)C(CCCCCC)CCCCCCCC (stereo partly drawn) [Compound 14, (((3S,4R)-1-(3-hydroxypropyl)pyrrolidine-3,4-diyl)bis(oxy))bis(hexane-6,1-diyl)bis(hexyldecanoate)] | – | – | – | – | – | – | – | – | 105% | — (The toxicity of compounds 11 and 14 is less than 10%)
4 | CCCCCCCCC(CCCCCCCC)OC(=O)CCCCO[C@H]1CN(CCO)C[C@H]1OCCCCC(=O)OC(CCCCCCCC)CCCCCCCC [Compound 4, di(heptadecan-9-yl)5,5′-(((3S,4R)-1-(2-hydroxyethyl)pyrrolidine-3,4-diyl)bis(oxy))dipentanoate] | 98.43% | 1.03 mV | 0.015 | 79.20 nm | – | – | – | – | – | –
5 | CCCCCCCCC(CCCCCCCC)OC(=O)CCO[C@H]1CN(CCCCO)C[C@H]1OCCC(=O)OC(CCCCCCCC)CCCCCCCC [Compound 7, di(heptadecan-9-yl)3,3′-(((3R,4S)-1-(4-hydroxybutyl)pyrrolidine-3,4-diyl)bis(oxy))dipropionate] | 97.22% | 2.41 mV | 0.025 | 87.10 nm | – | – | – | – | – | –
6 | CCCCCCCCC(CCCCCCCC)OC(=O)CCO[C@H]1CN(CCO)C[C@H]1OCCC(=O)OC(CCCCCCCC)CCCCCCCC [Compound 1, di(heptadecan-9-yl)3,3′-(((3R,4S)-1-(2-hydroxyethyl)pyrrolidine-3,4-diyl)bis(oxy))dipropionate] | 98.5% | −7.06 mV | 0.026 | 73.80 nm | – | – | – | – | – | –
7 | CCCCCCCCC(CCCCCCCC)OC(=O)CCO[C@H]1CN(CCCO)C[C@H]1OCCC(=O)OC(CCCCCCCC)CCCCCCCC [Compound 2] | 98.1% | −5.73 mV | 0.033 | 74.65 nm | – | – | – | – | – | –
8 | CCCCCCCCC(CCCCCCCC)OC(=O)CCCCCO[C@H]1CN(CCCO)C[C@H]1OCCCCCC(=O)OC(CCCCCCCC)CCCCCCCC [Compound 11, di(heptadecan-9-yl)6,6′-(((3R,4S)-1-(3-hydroxypropyl)pyrrolidine-3,4-diyl)bis(oxy))dihexanoate] | 97.58% | 10.95 mV | 0.014 | 80.71 nm | 97.58% | 80.71 nm | 10.95 mV | 0.014 | 100% | — (The toxicity of compounds 11 and 14 is less than 10%)

The next lines start with results.

Row | Encap)-sulation (% [1] | LNP zeta potential (mV) ([2]; Table 1) | PDI ([2]; Table 1) | LNP size (nm) ([2]; z-average diameter, Table 1) | Encapsulation (%) ([1]; Table 2) | LNP size (nm) ([2]; Table 2) | LNP zeta potential (mV) ([2]; Table 2) | PDI ([2]; Table 2) | Structure (SMILES) | Transfection efficiency (relative to SM-102, %) [3] | Cytotoxicity in HEPG2 [4]
9 | 97.36% | 15.00 mV | 0.06 | 88.33 nm | – | – | – | – | CCCCCCC(CCCC)COC(=O)CCCCO[C@H]1CN(CCCO)C[C@H]1OCCCCC(=O)OCC(CCCC)CCCCCC (stereo partly drawn) [Compound 20, bis(2-butyloctyl) 5,5′-(((3R,4S)-1-(3-hydroxypropyl)pyrrolidine-3,4-diyl)bis(oxy))dipentanoate] | – | –
10 | 97.31% | 6.25 mV | 0.05 | 79.74 nm | – | – | – | – | CCCCCCCCCCC(CCCCCCCC)COC(=O)CCCCO[C@H]1CN(CCCCCCO)C[C@H]1OCCCCC(=O)OCC(CCCCCCCC)CCCCCCCCCC (stereo partly drawn) [Compound 19, bis(2-octyldodecyl)5,5′-(((3R,4S)-1-(6-hydroxyhexyl)pyrrolidine-3,4-diyl)bis(oxy))dipentanoate] | – | –
11 | 97.57% | 9.52 mV | 0.03 | 86.61 nm | – | – | – | – | CCCCCCCCCCC(CCCCCCCC)COC(=O)CCCCO[C@H]1CN(CCCCCO)C[C@H]1OCCCCC(=O)OCC(CCCCCCCC)CCCCCCCCCC (stereo partly drawn) [Compound 18, bis(2-octyldodecyl)5,5′-(((3R,4S)-1-(5-hydroxypentyl)pyrrolidine-3,4-diyl)bis(oxy))dipentanoate] | – | –
12 | 98.18% | 10.78 mV | 0.05 | 148.20 nm | – | – | – | – | CCCCCCC(CCCC)COC(=O)CCCCO[C@H]1CN(CCCCCCO)C[C@H]1OCCCCC(=O)OCC(CCCC)CCCCCC (stereo partly drawn) [Compound 22, bis(2-butyloctyl) 5,5′-(((3R,4S)-1-(6-hydroxyhexyl)pyrrolidine-3,4-diyl)bis(oxy))dipentanoate] | – | –
13 | 98.16% | 8.00 mV | 0.03 | 95.10 nm | – | – | – | – | CCCCCCCCCCC(CCCCCCCC)COC(=O)CCCCO[C@H]1CN(CCCO)C[C@H]1OCCCCC(=O)OCC(CCCCCCCC)CCCCCCCCCC (stereo partly drawn) [Compound 17, bis(2-octyldodecyl)5,5′-(((3R,4S)-1-(3-hydroxypropyl)pyrrolidine-3,4-diyl)bis(oxy))dipentanoate] | – | –
14 | 97.39% | 12.45 mV | 0.046 | 81.29 nm | – | – | – | – | CCCCCCCCC(CCCCCCCC)OC(=O)CCCCCO[C@H]1CN(CCCCO)C[C@H]1OCCCCCC(=O)OC(CCCCCCCC)CCCCCCCC [Compound 13, di(heptadecan-9-yl)6,6′-(((3R,4S)-1-(4-hydroxybutyl)pyrrolidine-3,4-diyl)bis(oxy))dihexanoate] | – | –
15 | 98.87% | 14.91 mV | 0.0532 | 93.39 nm | – | – | – | – | CCCCCCC(CCCC)COC(=O)CCCCO[C@H]1CN(CCCCCO)C[C@H]1OCCCCC(=O)OCC(CCCC)CCCCCC (stereo partly drawn) [Compound 21, bis(2-butyloctyl) 5,5′-(((3R,4S)-1-(5-hydroxypentyl)pyrrolidine-3,4-diyl)bis(oxy))dipentanoate] | – | –
